# Results published in the kinase profiling compilation of Christmann-Franck et al. (2016).
# Legend:
# Assay in all cases: KINOMEscan competition binding
# Conditions in all cases: compound 10.0 µM
# STK35 (human) = STK35 (human) (UniProt Q8TDR2)
# ACVRL1 (human) = ACVRL1 (human) (UniProt P37023)
# PRKCH (human) = PRKCH (human) (UniProt P24723)
# NEK5 (human) = NEK5 (human) (UniProt Q6P3R8)
# STK10 (human) = STK10 (human) (UniProt O94804)
# CDK18 (human) = CDK18 (human) (UniProt Q07002)
# [1] = tested on: ABL1 (human), P00519 [M351T]
# PTK2 (human) = PTK2 (human) (UniProt Q05397)
# TLK2 (human) = TLK2 (human) (UniProt Q86UE8)
# [2] = target: TYK2 JH1 catalytic (human) (UniProt P29597)
# ROCK2 (human) = ROCK2 (human) (UniProt O75116)
# CDKL2 (human) = CDKL2 (human) (UniProt Q92772)
# RPS6KA3 KD1 (human) = RPS6KA3 KD1 (human) (UniProt P51812)
# INSR (human) = INSR (human) (UniProt P06213)
# MAP3K9 (human) = MAP3K9 (human) (UniProt P80192)
# Chain of MAP3K9 (human) (P80192 whole entry, looked up): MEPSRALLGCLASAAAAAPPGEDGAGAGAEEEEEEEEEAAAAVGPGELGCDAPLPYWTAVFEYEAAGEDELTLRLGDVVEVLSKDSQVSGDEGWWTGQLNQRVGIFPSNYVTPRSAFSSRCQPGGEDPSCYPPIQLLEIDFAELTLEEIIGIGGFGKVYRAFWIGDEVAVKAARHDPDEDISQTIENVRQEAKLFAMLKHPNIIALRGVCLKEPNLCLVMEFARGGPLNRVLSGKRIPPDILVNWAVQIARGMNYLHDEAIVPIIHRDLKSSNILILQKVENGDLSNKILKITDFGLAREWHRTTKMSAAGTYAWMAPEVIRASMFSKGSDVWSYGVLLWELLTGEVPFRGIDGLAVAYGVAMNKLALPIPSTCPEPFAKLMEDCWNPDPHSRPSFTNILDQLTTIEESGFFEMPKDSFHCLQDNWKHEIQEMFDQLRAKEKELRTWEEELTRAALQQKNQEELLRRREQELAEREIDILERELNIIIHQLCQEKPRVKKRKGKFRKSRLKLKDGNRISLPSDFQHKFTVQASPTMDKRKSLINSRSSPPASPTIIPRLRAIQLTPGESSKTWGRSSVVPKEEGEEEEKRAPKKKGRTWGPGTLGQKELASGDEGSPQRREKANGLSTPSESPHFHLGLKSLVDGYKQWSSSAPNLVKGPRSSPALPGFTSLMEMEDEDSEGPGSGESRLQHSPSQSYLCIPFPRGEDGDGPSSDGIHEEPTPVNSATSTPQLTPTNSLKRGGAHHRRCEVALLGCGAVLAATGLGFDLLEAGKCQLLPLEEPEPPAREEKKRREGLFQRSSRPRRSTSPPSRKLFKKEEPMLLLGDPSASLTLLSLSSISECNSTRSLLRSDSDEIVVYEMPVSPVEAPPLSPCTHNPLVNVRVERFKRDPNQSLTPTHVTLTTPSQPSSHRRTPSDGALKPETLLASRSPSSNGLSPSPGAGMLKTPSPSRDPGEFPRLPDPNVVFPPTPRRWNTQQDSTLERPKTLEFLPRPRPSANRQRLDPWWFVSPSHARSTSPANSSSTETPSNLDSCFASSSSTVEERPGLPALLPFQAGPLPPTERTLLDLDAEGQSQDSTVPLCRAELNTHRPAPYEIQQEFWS
# TSSK1B (human) = TSSK1B (human) (UniProt Q9BXA7)
# Chain of TSSK1B (human) (Q9BXA7 whole entry, looked up): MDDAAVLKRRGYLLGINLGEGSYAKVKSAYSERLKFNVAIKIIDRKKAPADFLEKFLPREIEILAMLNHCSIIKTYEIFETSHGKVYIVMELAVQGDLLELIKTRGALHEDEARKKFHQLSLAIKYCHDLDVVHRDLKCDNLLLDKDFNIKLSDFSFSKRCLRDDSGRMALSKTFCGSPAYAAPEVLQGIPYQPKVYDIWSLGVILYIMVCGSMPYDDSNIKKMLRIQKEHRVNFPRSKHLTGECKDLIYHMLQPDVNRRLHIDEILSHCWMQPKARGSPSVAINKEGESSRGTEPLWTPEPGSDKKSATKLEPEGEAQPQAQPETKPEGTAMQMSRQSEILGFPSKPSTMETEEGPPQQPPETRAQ
# CAMK2B (human) = CAMK2B (human) (UniProt Q13554)
# Chain of CAMK2B (human) (Q13554 whole entry, looked up): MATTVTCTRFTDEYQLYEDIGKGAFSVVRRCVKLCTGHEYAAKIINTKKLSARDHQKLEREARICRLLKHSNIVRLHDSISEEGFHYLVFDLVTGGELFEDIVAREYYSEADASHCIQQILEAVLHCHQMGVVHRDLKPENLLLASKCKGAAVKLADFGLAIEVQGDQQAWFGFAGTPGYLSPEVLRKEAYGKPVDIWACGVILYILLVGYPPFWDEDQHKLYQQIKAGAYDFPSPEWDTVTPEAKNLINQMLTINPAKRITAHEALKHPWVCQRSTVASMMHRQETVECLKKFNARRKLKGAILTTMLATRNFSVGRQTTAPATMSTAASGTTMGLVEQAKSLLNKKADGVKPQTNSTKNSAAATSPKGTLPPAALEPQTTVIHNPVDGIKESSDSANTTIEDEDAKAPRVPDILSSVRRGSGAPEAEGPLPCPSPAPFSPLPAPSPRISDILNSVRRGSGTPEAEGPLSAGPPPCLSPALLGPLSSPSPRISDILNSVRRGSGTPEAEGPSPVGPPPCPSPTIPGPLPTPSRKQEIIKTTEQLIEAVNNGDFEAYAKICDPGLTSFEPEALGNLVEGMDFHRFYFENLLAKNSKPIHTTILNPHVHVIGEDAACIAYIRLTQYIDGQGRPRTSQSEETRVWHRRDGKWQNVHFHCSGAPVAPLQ
# [3] = tested on: EGFR (human), P00533 [G719C; 746-750 del]
# IKBKE (human) = IKBKE (human) (UniProt Q14164)
# CDK17 (human) = CDK17 (human) (UniProt Q00537)
# CDK5 (human) = CDK5 (human) (UniProt Q00535)
# MET (human) = MET (human) (UniProt P08581)
# NUAK1 (human) = NUAK1 (human) (UniProt O60285)
# MARK3 (human) = MARK3 (human) (UniProt P27448)
# Chain of MARK3 (human) (P27448 whole entry, looked up): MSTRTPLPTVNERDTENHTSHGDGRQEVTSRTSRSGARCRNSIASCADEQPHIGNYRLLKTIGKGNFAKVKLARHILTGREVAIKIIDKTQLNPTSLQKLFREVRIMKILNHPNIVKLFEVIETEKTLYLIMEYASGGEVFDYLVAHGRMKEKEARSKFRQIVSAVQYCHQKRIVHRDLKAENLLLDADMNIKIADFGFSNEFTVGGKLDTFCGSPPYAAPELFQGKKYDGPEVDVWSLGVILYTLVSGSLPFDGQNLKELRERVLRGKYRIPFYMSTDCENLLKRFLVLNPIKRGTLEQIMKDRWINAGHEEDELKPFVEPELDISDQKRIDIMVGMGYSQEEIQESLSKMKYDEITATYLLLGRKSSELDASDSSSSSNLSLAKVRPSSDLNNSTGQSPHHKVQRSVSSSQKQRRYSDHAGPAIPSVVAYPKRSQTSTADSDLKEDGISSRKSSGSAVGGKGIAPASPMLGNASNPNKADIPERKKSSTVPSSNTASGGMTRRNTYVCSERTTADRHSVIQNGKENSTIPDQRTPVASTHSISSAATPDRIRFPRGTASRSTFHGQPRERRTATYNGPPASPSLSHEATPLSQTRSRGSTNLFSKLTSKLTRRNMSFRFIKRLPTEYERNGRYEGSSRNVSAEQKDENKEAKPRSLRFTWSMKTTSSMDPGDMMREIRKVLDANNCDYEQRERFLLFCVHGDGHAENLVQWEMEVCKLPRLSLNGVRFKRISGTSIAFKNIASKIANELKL
# EPHB4 (human) = EPHB4 (human) (UniProt P54760)
# Chain of EPHB4 (human) (P54760 whole entry, looked up): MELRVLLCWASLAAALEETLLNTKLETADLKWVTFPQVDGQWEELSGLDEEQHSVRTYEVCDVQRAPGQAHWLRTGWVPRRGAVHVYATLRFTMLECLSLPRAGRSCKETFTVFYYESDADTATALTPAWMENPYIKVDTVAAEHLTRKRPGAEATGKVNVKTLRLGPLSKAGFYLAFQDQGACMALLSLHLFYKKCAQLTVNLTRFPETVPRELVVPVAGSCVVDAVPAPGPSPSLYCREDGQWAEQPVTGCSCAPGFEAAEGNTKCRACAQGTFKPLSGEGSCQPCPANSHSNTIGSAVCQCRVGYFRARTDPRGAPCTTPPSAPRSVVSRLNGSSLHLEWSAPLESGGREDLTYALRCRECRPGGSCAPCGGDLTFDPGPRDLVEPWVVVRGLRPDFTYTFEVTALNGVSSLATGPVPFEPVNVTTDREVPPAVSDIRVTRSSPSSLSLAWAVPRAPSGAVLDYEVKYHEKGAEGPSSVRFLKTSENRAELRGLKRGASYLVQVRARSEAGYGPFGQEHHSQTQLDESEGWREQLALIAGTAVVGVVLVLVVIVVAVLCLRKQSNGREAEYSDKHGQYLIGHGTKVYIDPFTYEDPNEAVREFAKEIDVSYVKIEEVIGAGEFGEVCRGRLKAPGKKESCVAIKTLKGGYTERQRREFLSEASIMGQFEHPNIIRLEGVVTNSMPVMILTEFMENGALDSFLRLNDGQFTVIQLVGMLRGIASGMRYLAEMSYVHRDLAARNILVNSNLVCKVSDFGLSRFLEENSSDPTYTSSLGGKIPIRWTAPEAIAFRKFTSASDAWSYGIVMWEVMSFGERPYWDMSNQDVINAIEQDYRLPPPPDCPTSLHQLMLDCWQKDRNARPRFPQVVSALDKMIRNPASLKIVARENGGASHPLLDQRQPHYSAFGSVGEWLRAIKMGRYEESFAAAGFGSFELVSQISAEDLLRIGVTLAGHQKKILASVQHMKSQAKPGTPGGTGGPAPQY
# [4] = tested on: RET (human), P07949 [V804L]
# RPS6KA6 KD1 (human) = RPS6KA6 KD1 (human) (UniProt Q9UK32)
# NEK1 (human) = NEK1 (human) (UniProt Q96PY6)
# EPHA7 (human) = EPHA7 (human) (UniProt Q15375)
# DDR1 (human) = DDR1 (human) (UniProt Q08345)
# MAPK10 (human) = MAPK10 (human) (UniProt P53779)
# PLK3 (human) = PLK3 (human) (UniProt Q9H4B4)
# Chain of PLK3 (human) (Q9H4B4 whole entry, looked up): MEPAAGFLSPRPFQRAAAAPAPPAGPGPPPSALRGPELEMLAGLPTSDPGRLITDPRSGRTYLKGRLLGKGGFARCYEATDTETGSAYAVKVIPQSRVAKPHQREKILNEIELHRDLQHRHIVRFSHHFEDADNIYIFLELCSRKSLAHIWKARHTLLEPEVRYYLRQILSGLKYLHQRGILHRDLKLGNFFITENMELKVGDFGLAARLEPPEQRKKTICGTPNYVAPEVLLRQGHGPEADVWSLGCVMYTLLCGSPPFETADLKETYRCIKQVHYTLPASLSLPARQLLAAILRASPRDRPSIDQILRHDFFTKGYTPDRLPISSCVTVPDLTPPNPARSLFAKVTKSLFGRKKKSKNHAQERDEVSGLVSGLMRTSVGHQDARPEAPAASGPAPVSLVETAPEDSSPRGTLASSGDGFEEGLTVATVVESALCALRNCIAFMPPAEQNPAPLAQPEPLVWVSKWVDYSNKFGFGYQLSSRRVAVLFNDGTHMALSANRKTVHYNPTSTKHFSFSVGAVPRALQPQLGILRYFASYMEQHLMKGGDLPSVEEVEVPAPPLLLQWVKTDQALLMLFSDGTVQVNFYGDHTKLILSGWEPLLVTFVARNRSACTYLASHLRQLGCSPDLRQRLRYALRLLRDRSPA
# BRSK1 (human) = BRSK1 (human) (UniProt Q8TDC3)
# PRKG1 (human) = PRKG1 (human) (UniProt Q13976)
# NUAK2 (human) = NUAK2 (human) (UniProt Q9H093)
# NLK (human) = NLK (human) (UniProt Q9UBE8)
# Chain of NLK (human) (Q9UBE8 whole entry, looked up): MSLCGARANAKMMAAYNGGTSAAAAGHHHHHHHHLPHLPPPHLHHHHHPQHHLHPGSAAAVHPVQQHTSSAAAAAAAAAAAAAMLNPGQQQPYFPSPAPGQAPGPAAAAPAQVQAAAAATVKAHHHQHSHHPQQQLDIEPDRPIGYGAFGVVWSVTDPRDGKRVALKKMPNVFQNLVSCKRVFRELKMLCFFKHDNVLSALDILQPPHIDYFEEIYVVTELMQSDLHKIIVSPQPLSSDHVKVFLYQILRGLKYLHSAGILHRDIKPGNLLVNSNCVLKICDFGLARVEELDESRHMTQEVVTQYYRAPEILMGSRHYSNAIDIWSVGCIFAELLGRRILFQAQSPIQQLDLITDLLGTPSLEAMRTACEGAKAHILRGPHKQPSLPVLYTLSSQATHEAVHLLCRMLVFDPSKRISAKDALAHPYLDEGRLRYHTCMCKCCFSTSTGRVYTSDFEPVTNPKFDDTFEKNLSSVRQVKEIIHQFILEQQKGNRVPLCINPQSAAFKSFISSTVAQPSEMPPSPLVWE
# FES (human) = FES (human) (UniProt P07332)
# NTRK2 (human) = NTRK2 (human) (UniProt Q16620)
# MAPKAPK5 (human) = MAPKAPK5 (human) (UniProt Q8IW41)
# SIK2 (human) = SIK2 (human) (UniProt Q9H0K1)
# [5] = tested on: EGFR (human), P00533 [752-759 del]
# MYLK2 (human) = MYLK2 (human) (UniProt Q9H1R3)
structure (smiles),measurement,setting,value
CN1CCN(c2ccc(C(=O)Nc3ncc4c(n3)N(C)c3ccccc3C(=O)N4C)cc2)CC1,"kinase still bound, per cent of control",STK35 (human),100%
same,"kinase still bound, per cent of control",ACVRL1 (human),98%
same,"kinase still bound, per cent of control",PRKCH (human),95%
same,"kinase still bound, per cent of control",NEK5 (human),100%
same,"kinase still bound, per cent of control",STK10 (human),100%
same,"kinase still bound, per cent of control",CDK18 (human),100%
same,"kinase still bound, per cent of control",[1],100%
same,"kinase still bound, per cent of control",PTK2 (human),100%
same,"kinase still bound, per cent of control",TLK2 (human),100%
same,"kinase still bound, per cent of control",[2],44%
same,"kinase still bound, per cent of control",ROCK2 (human),100%
same,"kinase still bound, per cent of control",CDKL2 (human),100%
same,"kinase still bound, per cent of control",RPS6KA3 KD1 (human),100%
same,"kinase still bound, per cent of control",INSR (human),100%
same,"kinase still bound, per cent of control",MAP3K9 (human),100%
same,"kinase still bound, per cent of control",TSSK1B (human),100%
same,"kinase still bound, per cent of control",CAMK2B (human),98%
same,"kinase still bound, per cent of control",[3],100%
same,"kinase still bound, per cent of control",IKBKE (human),100%
same,"kinase still bound, per cent of control",CDK17 (human),100%
same,"kinase still bound, per cent of control",CDK5 (human),100%
same,"kinase still bound, per cent of control",MET (human),100%
same,"kinase still bound, per cent of control",NUAK1 (human),90%
same,"kinase still bound, per cent of control",MARK3 (human),100%
same,"kinase still bound, per cent of control",EPHB4 (human),97%
same,"kinase still bound, per cent of control",[4],100%
same,"kinase still bound, per cent of control",RPS6KA6 KD1 (human),100%
same,"kinase still bound, per cent of control",NEK1 (human),100%
same,"kinase still bound, per cent of control",EPHA7 (human),100%
same,"kinase still bound, per cent of control",DDR1 (human),100%
same,"kinase still bound, per cent of control",MAPK10 (human),93%
same,"kinase still bound, per cent of control",PLK3 (human),100%
same,"kinase still bound, per cent of control",BRSK1 (human),87%
same,"kinase still bound, per cent of control",PRKG1 (human),100%
same,"kinase still bound, per cent of control",NUAK2 (human),100%
same,"kinase still bound, per cent of control",NLK (human),100%
same,"kinase still bound, per cent of control",FES (human),100%
same,"kinase still bound, per cent of control",NTRK2 (human),69%
same,"kinase still bound, per cent of control",MAPKAPK5 (human),63%
same,"kinase still bound, per cent of control",SIK2 (human),78%
same,"kinase still bound, per cent of control",[5],100%
same,"kinase still bound, per cent of control",MYLK2 (human),100%
CN1C(=O)c2ccccc2N(C)c2nc(Nc3ccc(N4CCC(O)CC4)cc3)ncc21,"kinase still bound, per cent of control",STK35 (human),96%
same,"kinase still bound, per cent of control",ACVRL1 (human),100%
same,"kinase still bound, per cent of control",PRKCH (human),100%
same,"kinase still bound, per cent of control",NEK5 (human),100%
same,"kinase still bound, per cent of control",STK10 (human),100%
same,"kinase still bound, per cent of control",CDK18 (human),100%
same,"kinase still bound, per cent of control",[1],3%
same,"kinase still bound, per cent of control",PTK2 (human),75%
same,"kinase still bound, per cent of control",TLK2 (human),100%
same,"kinase still bound, per cent of control",[2],1.9%
same,"kinase still bound, per cent of control",ROCK2 (human),86%
same,"kinase still bound, per cent of control",CDKL2 (human),100%
same,"kinase still bound, per cent of control",RPS6KA3 KD1 (human),85%
same,"kinase still bound, per cent of control",INSR (human),80%
same,"kinase still bound, per cent of control",MAP3K9 (human),91%
same,"kinase still bound, per cent of control",TSSK1B (human),100%
same,"kinase still bound, per cent of control",CAMK2B (human),100%
same,"kinase still bound, per cent of control",[3],100%
same,"kinase still bound, per cent of control",IKBKE (human),87%
same,"kinase still bound, per cent of control",CDK17 (human),90%
same,"kinase still bound, per cent of control",CDK5 (human),100%
same,"kinase still bound, per cent of control",MET (human),77%
same,"kinase still bound, per cent of control",NUAK1 (human),17%
same,"kinase still bound, per cent of control",MARK3 (human),60%
same,"kinase still bound, per cent of control",EPHB4 (human),100%
same,"kinase still bound, per cent of control",[4],1.7%
same,"kinase still bound, per cent of control",RPS6KA6 KD1 (human),61%
same,"kinase still bound, per cent of control",NEK1 (human),93%
same,"kinase still bound, per cent of control",EPHA7 (human),100%
same,"kinase still bound, per cent of control",DDR1 (human),68%
same,"kinase still bound, per cent of control",MAPK10 (human),100%
same,"kinase still bound, per cent of control",PLK3 (human),97%
same,"kinase still bound, per cent of control",BRSK1 (human),56%
same,"kinase still bound, per cent of control",PRKG1 (human),100%
same,"kinase still bound, per cent of control",NUAK2 (human),23%
same,"kinase still bound, per cent of control",NLK (human),74%
same,"kinase still bound, per cent of control",FES (human),100%
same,"kinase still bound, per cent of control",NTRK2 (human),36%
same,"kinase still bound, per cent of control",MAPKAPK5 (human),92%
same,"kinase still bound, per cent of control",SIK2 (human),61%
same,"kinase still bound, per cent of control",[5],92%
same,"kinase still bound, per cent of control",MYLK2 (human),80%
